Drawing on patent US20250368634A1, “PHENYL AMIDE COMPOUNDS AND METHODS OF USE” (SCHRÖDINGER, INC., priority 2022, published 2025), this text covers IC50 for twelve compounds.

Sequence of SOS1-KRas (G12C) (Q07889 564-1049, stated change not applied): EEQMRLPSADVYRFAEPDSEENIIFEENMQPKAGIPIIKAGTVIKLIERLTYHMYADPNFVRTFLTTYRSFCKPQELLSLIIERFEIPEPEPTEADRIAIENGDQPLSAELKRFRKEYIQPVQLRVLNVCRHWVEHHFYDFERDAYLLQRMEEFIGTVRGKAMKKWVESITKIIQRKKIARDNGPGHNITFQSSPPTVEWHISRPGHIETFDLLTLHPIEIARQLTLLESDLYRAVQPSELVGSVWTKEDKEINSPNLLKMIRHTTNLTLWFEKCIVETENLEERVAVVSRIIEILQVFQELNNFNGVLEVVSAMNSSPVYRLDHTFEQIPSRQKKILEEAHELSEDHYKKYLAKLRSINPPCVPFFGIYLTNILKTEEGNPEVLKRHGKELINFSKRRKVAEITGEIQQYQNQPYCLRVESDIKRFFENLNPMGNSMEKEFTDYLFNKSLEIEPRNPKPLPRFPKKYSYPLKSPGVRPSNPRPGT

The first assay addresses SOS1-KRas (G12C) (Homo sapiens (Human), UniProt Q07889). The assay is described as follows: SOS1-KRas (G12C) FRET Assay.
Details: not given
The assay is classed as binding.
For `C[C@@H](NC(=O)c1cc(-c2ccncc2)c(F)cc1N[C@H]1CN2CCC1CC2)c1cccc(C(F)F)c1F` (single isomer, unassigned) [Example 58], inhibition was half-maximal at 7.9 nM (IC50).

Regarding `C[C@@H](NC(=O)c1cc(O[C@@H]2CCOC2)c(F)cc1NC1CCN(C)CC1)c1cccc(C(F)F)c1F` [Example 9, N—((R)-1-(3-(difluoromethyl)-2-fluorophenyl)ethyl)-4-fluoro-2-((1-methylpiperidin-4-yl)amino)-5-(((R)-tetrahydrofuran-3-yl)oxy)benzamide], the half-maximal inhibitory concentration (IC50) was determined as 94 nM. This IC50 is about 12-fold higher than that of the compound before.

The same assay, now with this note: inhibition of SOS1:KRAS interaction; 0.5 nM His10-SOS1 (res. 564-1049), 2.5 nM GST-KRAS (res. 1-169, G12C); 2 hrs at RT.
With `C[C@@H](NC(=O)c1cc(-c2ccncn2)c(F)cc1NC1CCN(C)CC1)c1cccc(C(F)F)c1F` [Example 66, (R)—N-(1-(3-(difluoromethyl)-2-fluorophenyl)ethyl)-4-fluoro-2-((1-methylpiperidin-4-yl)amino)-5-(pyrimidin-4-yl)benzamide], the half-inhibitory concentration (IC50) worked out at 34.9 nM.

As for `Cc1c(C#N)cccc1[C@@H](C)NC(=O)c1cc(N2CCOCC2)c(F)cc1N[C@H]1CN2CCC1CC2` [Example 45, N—((R)-1-(3-cyano-2-methylphenyl)ethyl)-4-fluoro-5-morpholino-2-(((R)-quinuclidin-3-yl)amino)benzamide], half-maximal inhibition (IC50) required 69.2 nM.

With `C[C@@H](NC(=O)c1cc(-c2ccn(C)c(=O)c2)c(F)cc1NC1CCN(C)CC1)c1cccc(C(F)F)c1F` [Example 60, (R)—N-(1-(3-(difluoromethyl)-2-fluorophenyl)ethyl)-4-fluoro-5-(1-methyl-2-oxo-1,2-dihydropyridin-4-yl)-2-((1-methylpiperidin-4-yl)amino)benzamide], half-maximal inhibition (IC50) was put at 11 nM.

As for `CC(=O)N1CC2(C1)CN(c1cc(C(=O)N[C@H](C)c3cccc(C(F)(F)F)c3C)c(NC3CCN(C)CC3)cc1F)C2` [Example 20, (R)-5-(6-acetyl-2,6-diazaspiro[3.3]heptan-2-yl)-4-fluoro-N-(1-(2-methyl-3-(trifluoromethyl)phenyl)ethyl)-2-((1-methylpiperidin-4-yl)amino)benzamide], it took 26.4 nM to reach half-maximal inhibition (IC50).

`C[C@H](CN(C)C)Nc1cc(F)c(N2CCOCC2)cc1C(=O)N[C@H](C)c1cccc(C(F)F)c1F` (single isomer, unassigned) [Example 49]: the concentration for half-maximal inhibition (IC50) stood at 70.7 nM. This IC50 lies about 2.7-fold higher than the previous one.

For `C[C@@H](NC(=O)c1cc(N2CCOCC2)c(C#N)cc1NC1CCN(C)CC1)c1cccc(C(F)F)c1F` [Example 4, (R)-4-cyano-N-(1-(3-(difluoromethyl)-2-fluorophenyl)ethyl)-2-((1-methylpiperidin-4-yl)-amino)-5-morpholinobenzamide], the IC50 worked out at 15 nM.

The compound `C[C@@H](NC(=O)c1cc(N2CCOCC2)c(F)cc1NC1CCNCC1)c1cccc(C(F)F)c1F` [Example 14, (R)—N-(1-(3-(difluoromethyl)-2-fluorophenyl)ethyl)-4-fluoro-5-morpholino-2-(piperidin-4-ylamino)benzamide] yielded an IC50 of 21.7 nM.

Compound `C[C@@H](NC(=O)c1cc(N2CCOCC2)c(F)cc1NC1(C)CN(C)C1)c1cccc(C(F)F)c1F` [Example 54, (R)—N-(1-(3-(difluoromethyl)-2-fluorophenyl)ethyl)-2-((1,3-dimethylazetidin-3-yl)amino)-4-fluoro-5-morpholinobenzamide] returned an IC50 of 74.1 nM.

`C[C@@H](NC(=O)c1cc(C(=O)N2CCC(F)(F)CC2)c(F)cc1NC1CCN(C)CC1)c1cccc(C(F)F)c1F` [Example 74, (R)—N-(1-(3-(difluoromethyl)-2-fluorophenyl)ethyl)-5-(4,4-difluoropiperidine-1-carbonyl)-4-fluoro-2-((1-methylpiperidin-4-yl)amino)benzamide] came in with an IC50 of 888 nM.

`COC(=O)c1cc(C(=O)N[C@H](C)c2cccc(C(F)F)c2F)c(NC2CCN(C)CC2)cc1F` [Example 71, methyl (R)-5-((1-(3-(difluoromethyl)-2-fluorophenyl)ethyl)carbamoyl)-2-fluoro-4-((1-methylpiperidin-4-yl)amino)benzoate] came in with an IC50 of 93.6 nM.
